Assay results reported in patent US6903083B2, “Stabilized hydroxyvitamin D” (Bone Care International, Inc., priority 2000, dated 2005).
Each block holds one compound with its values, some of them ahead of it.

Tests used:
Assay type in all cases: physicochemical
[1] = Stability testing SHVD2 v. non-SHVD2, oven at about 60° C., HPLC (Example 6); settings: 0 to 48 hours, solid in test tube, present-tense example
Protocol: Approximately 1 mg of SHVD2 or non-stabilized 1α-hydroxyvitamin D2 (non-SHVD2) is placed in each of 9 (12×75 mm) test tubes. The test tubes are placed in an oven at about 60° C. One test tube of each of the two vitamin D2 preparations is removed at 0, 3, 6, 9, 12, 18, 24, 36 and 48 hours of incubation. The contents in each test tube are dissolved in ethanol to produce a 1 mg/mL solution. Each solution (10 μL) is analyzed by the following HPCL conditions: a YMC Pack C8 column (4.6×250 mm, 5 μm) with a mobile phase of acetonitrile: methanol: water (60:20:20) at a flow rate of 1.0 mL/min.

[2] = Stability testing SHVD2 v. non-SHVD2 (ethanol vapour exposed), 60° C. for 48 hours, HPLC (Example 8); settings: non-SHVD2 made by exposure to ethanol vapors
Protocol: Approximately 1 mg of stabilized 1α-hydroxyvitamin D2 (doxercalciferol) (SHVD2) was placed in each of two test tubes (12×75 mm). One sample was placed in a dessicator containing an atmosphere of ethanol vapors to increase the residual solvent content of the material to form non-stabilized doxercalciferol (non-SHVD2). The material in the dessicator was heated at 60° C. for 48 hours. The other sample was not subjected to the ethanol atmosphere, thereby retaining its stabilized form, but was heated at 60° C. for 48 hours. The contents in each test tube were dissolved in ethanol to produce a 1 mg/mL solution. Each solution (10 μL) was analyzed by the following HPLC conditions: a YMC Pack C8 column (4.6×250 mm, 5 μm) with a mobile phase of acetonitrile: methanol: water (60:20:20) at a flow rate of 1.0 mL/min.

[3] = Storage stability testing of SHVD2, long-term storage at −70° C., HPLC and UV
Protocol: (§1) The stability of samples from four lots of SHVD2 was examined at 6-month intervals during long-term storage at −70° C. All lots were stored in the container-closure system selected as packaging for the drug substance. Stability was assessed by examining samples for changes in (1) weight percent 1α-OH-D2 content, (2) percent related substances content, and (3) impurity profile, using HPLC. In addition, all lots were examined for changes in UV spectrum by UV spectrophotometry.

[4] = Stability testing SHVD2 v. commercially available 1α-OH-D2, oven at about 60° C., HPLC (Example 7); settings: solid in test tube, present-tense example
Protocol: Approximately 1 mg of SHVD2 or commercial 1α-hydroxyvitamin D2 is placed in each of 2 (12×75 mm) test tubes. One test tube from each of the two preparations is placed in an oven at about 60° C. For analysis, the contents in each test tube are dissolved in ethanol to produce a 1 mg/mL solution. Each solution (10 μL) is analyzed by the following HPLC conditions: a YMC Pack C8 column (4.6×250 mm, 5 μm) with a mobile phase of acetonitrile: methanol: water (60:20:20) at a flow rate of 1.0 mL/min.

[5] = Stability testing of 1α,24(S)-dihydroxyvitamin D2 containing >0.5% residual solvents, 60° C. for 48 hours, HPLC (Example 9); settings: capped vial
Protocol: Approximately 1 mg of 1α,24(S)-dihydroxyvitamin D2 containing >0.5% residual solvents (non-SHVD) was placed in a capped vial and heated at 60° C. for 48 hours. The contents of the vial were dissolved in ethanol to produce a 1 mg/mL solution. The solution (10 μL) was analyzed by the following HPLC conditions: a YMC Pack Pro C18 column (4.6×150 mm, 5 μm) with a mobile phase of acetonitrile: water (50:50) at a flow rate of 1.0 mL/min.

[6] = Storage stability testing of stabilized 24-hydroxyvitamin D2, long-term storage at −70° C., HPLC and UV (Example 11); settings: present-tense example
Protocol: as §1, with “stabilized 24-Hydroxyvitamin D2 is” for “SHVD2 was”, “are” for “were”, “is” for “was”, “24-OH-D2” for “1α-OH-D2”

Structure (SMILES): C=C1/C(=C\C=C2/CCC[C@]3(C)[C@@H]([C@H](C)/C=C/[C@H](C)C(C)C)CC[C@@H]23)C[C@@H](O)C[C@@H]1O [non-SHVD2, 1α-hydroxyvitamin D2]
- rate of appearance of the peak with relative retention time of approximately 0.9 compared with the 1α-hydroxyvitamin D2 peak [1]: greater with the non-SHVD2 than with SHVD2
- rate of appearance of the peak with relative retention time of approximately 0.9 compared with the doxercalciferol peak [2]: greater with the non-SHVD2 material than with SHVD2

- impurity profile chromatography, new peaks relative to baseline ([3]; 6 or 12 months): no new peaks
- weight % 1α-OH-D2 content ([3]; all four lots, all time points (baseline, 6, 12 months), HPLC): > 98.0%
- percent related substances ([3]; baseline to 12 months, HPLC): < 2.0%
- differences in mean weight % 1α-OH-D2 content between baseline and 6 or 12 months ([3]; four lots): no significant differences
Structure (SMILES): C=C1/C(=C\C=C2/CCC[C@]3(C)[C@@H]([C@H](C)/C=C/[C@H](C)C(C)C)CC[C@@H]23)C[C@@H](O)C[C@@H]1O [SHVD2, 1α-hydroxyvitamin D2]

Structure (SMILES): C=C1/C(=C\C=C2/CCC[C@]3(C)[C@@H]([C@H](C)/C=C/[C@H](C)C(C)C)CC[C@@H]23)C[C@@H](O)C[C@@H]1O [commercial 1α-hydroxyvitamin D2, 1α-hydroxyvitamin D2]
- rate of appearance of the peak with relative retention time of approximately 0.9 compared with the 1α-hydroxyvitamin D2 peak [4]: greater with the commercial 1α-hydroxyvitamin D2 than with SHVD2

Structure (SMILES): C=C1/C(=C\C=C2/CCC[C@]3(C)[C@@H]([C@H](C)/C=C/[C@@](C)(O)C(C)C)CC[C@@H]23)C[C@@H](O)C[C@@H]1O [1α,24(S)-dihydroxyvitamin D2]
- appearance of a new compound by HPLC after heating [5]: a compound with a relative retention time of approximately 0.85 compared with standard 1α,24(S)-dihydroxyvitamin D2 was observed

- impurity profile chromatography, new peaks relative to baseline ([6]; 6 or 12 months): no new peaks
- weight % 24-OH-D2 content ([6]; all four lots, all time points): > 98.0%
- percent related substances ([6]; baseline to 12 months): < 2.0%
- differences in mean weight % 24-OH-D2 content between baseline and 6 or 12 months [6]: No significant differences
Structure (SMILES): C=C1CC[C@H](O)C/C1=C/C=C1\CCC[C@]2(C)[C@@H]([C@H](C)/C=C/C(C)(O)C(C)C)CC[C@@H]12 (stereo partly drawn) [stabilized 24-Hydroxyvitamin D2, 24-hydroxyvitamin D2]
